The source made the active and inactive calls.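 The calls were made as follows: active = p38 protein level shifted at least 30% from solvent-only control, either down or up; inactive = shift under 30% either way.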

Sequence of Mitogen-activated protein kinase 14 (Homo sapiens) (Q16539 whole entry, looked up): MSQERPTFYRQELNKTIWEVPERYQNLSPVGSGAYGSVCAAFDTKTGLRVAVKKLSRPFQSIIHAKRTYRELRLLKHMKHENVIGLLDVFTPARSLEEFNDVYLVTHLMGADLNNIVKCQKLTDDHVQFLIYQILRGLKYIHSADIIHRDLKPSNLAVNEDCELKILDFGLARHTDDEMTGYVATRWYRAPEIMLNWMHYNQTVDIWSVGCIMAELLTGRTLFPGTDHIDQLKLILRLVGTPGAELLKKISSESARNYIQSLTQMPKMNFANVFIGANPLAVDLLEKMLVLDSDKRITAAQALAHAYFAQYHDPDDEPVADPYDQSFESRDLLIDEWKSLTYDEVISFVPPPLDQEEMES

This assay concerns the target Mitogen-activated protein kinase 14 (Homo sapiens) (UniProt Q16539). The experiment in a line: altered p38 MAPK protein abundance – SW620 cells, chemiluminescent western blot, powder samples, counter-screen for KLF5 inhibitor project, late-stage follow-up (AID 588662). The following applies: 24 h, at 10 µM. (A western blot detects proteins with antibodies after separation by electrophoresis.)
In the case of `CN(C(=O)CNC(=O)/C=C/c1cccc(Cl)c1)C1CCS(=O)(=O)C1` (stereo not drawn), the inhibition was 1.69% (inactive).

Consider `CN(C(=O)CNC(=O)/C=C/c1cccc(Cl)c1)C1CCS(=O)(=O)CC1`, for which the inhibition is -41.1%.

For the compound `CN(C(=O)COC(=O)/C=C/c1cccc([N+](=O)[O-])c1)C1CCS(=O)(=O)C1` (stereo not drawn), the inhibition is -3.03% (inactive).

For orientation: inhibition means the relative decrease from the control value, in per cent.

The values are drawn from PubChem BioAssay AID588662 (The Scripps Research Institute Molecular Screening Center, 2011).
